Experimental data published in PubChem BioAssay (NCI).
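1) Cells in 96-well plates. 2) Compound, 48 h, 5 concentrations. 3) Linear interpolation between surrounding doses. 4) Unreached endpoint = highest concentration. GI50 = concentration required for 50% inhibition of growth. TGI denotes the concentration required for complete inhibition of growth.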

Experiments:
Assay in all cases: inhibition of tumour cell growth, NCI panel, 48 h
A498 renal = test system: A498 renal
HOP-92 NSCLC = test system: HOP-92 NSCLC
SF-539 CNS = test system: SF-539 CNS
SNB-19 CNS = test system: SNB-19 CNS
NCI-H226 lung = test system: NCI-H226 lung
SNB-75 CNS = test system: SNB-75 CNS

Cc1c(/C=N/NS(=O)(=O)c2ccccc2)no[n+]1[O-]
TGI (A498 renal): > 100 µM | TGI (HOP-92 NSCLC): > 100 µM | TGI (SF-539 CNS): > 100 µM | TGI (SNB-19 CNS): > 100 µM

CCOc1ccc(N=Cc2cccc3cccnc23)cc1
TGI (A498 renal): > 100 µM | TGI (HOP-92 NSCLC): > 100 µM | TGI (NCI-H226 lung): > 100 µM | TGI (SF-539 CNS): > 100 µM | TGI (SNB-19 CNS): > 100 µM | TGI (SNB-75 CNS): > 100 µM

CC(O)/C=C/C(CCC(C)CO)C(C)C (stereo unspecified)
TGI (A498 renal): > 100 µM | TGI (HOP-92 NSCLC): > 100 µM | TGI (SF-539 CNS): > 100 µM | TGI (SNB-19 CNS): > 100 µM | TGI (SNB-75 CNS): > 100 µM

COc1ccc(C=C2C(=O)OC(C)(C)OC2=O)cc1OC
TGI (A498 renal): > 100 µM | TGI (SNB-19 CNS): > 100 µM | TGI (SNB-75 CNS): > 100 µM

CCCCCCCCCCCCCCCCCC(=O)OCC(CN(C)CCN(C)C)OC(=O)CCCCCCCCCCCCCCCCC (stereo unspecified)
TGI (A498 renal): > 100 µM | TGI (HOP-92 NSCLC): > 100 µM | TGI (NCI-H226 lung): > 100 µM | TGI (SNB-19 CNS): > 100 µM | TGI (SNB-75 CNS): > 100 µM

COc1ccc(/C=N/N=C(\N)NO)cc1OC
TGI (HOP-92 NSCLC): > 100 µM | TGI (NCI-H226 lung): > 100 µM | TGI (SF-539 CNS): 64.9 µM | TGI (SNB-19 CNS): > 100 µM | TGI (SNB-75 CNS): > 100 µM

O=S(=O)([O-])c1cccc2cccc(N=Cc3ccccc3[O-])c12.O=S(=O)([O-])c1cccc2cccc(N=Cc3ccccc3[O-])c12.[O]=[U]=[O]
GI50 (A498 renal): > 100 µM | TGI (A498 renal): > 100 µM | GI50 (HOP-92 NSCLC): 30.1 µM | TGI (HOP-92 NSCLC): 89.6 µM | GI50 (NCI-H226 lung): 84.9 µM | TGI (NCI-H226 lung): > 100 µM | GI50 (SF-539 CNS): 36.3 µM | TGI (SF-539 CNS): > 100 µM | GI50 (SNB-19 CNS): 45.6 µM | TGI (SNB-19 CNS): > 100 µM | GI50 (SNB-75 CNS): 23.3 µM | TGI (SNB-75 CNS): 57.9 µM

O=C1C=C[C@@]23CC1C(O)C[C@H]2C=Cc1ccccc13 (stereo partly specified)
TGI (A498 renal): > 100 µM | TGI (HOP-92 NSCLC): > 100 µM | TGI (NCI-H226 lung): > 100 µM | TGI (SF-539 CNS): > 100 µM | TGI (SNB-19 CNS): > 100 µM | TGI (SNB-75 CNS): > 100 µM

C/C(O)=C(\N=O)C(=O)NCCc1ccccc1
TGI (A498 renal): > 100 µM | TGI (HOP-92 NSCLC): > 100 µM | TGI (NCI-H226 lung): > 100 µM | TGI (SF-539 CNS): > 100 µM | TGI (SNB-19 CNS): > 100 µM | TGI (SNB-75 CNS): > 100 µM

Cc1ccc(NC(=O)CC2C(=O)Nc3ccccc3S2=O)cc1C (stereo unspecified)
TGI (A498 renal): > 100 µM | TGI (HOP-92 NSCLC): 74.2 µM | TGI (NCI-H226 lung): > 100 µM | TGI (SF-539 CNS): 47.5 µM | TGI (SNB-19 CNS): > 100 µM | TGI (SNB-75 CNS): > 100 µM

Cc1cccc(C(C)(C)C)c1NC(=O)C(=O)C(C(=O)/C=C\c1ccccc1)C1OC(=O)c2ccccc21 (stereo unspecified)
TGI (A498 renal): > 100 µM | TGI (HOP-92 NSCLC): > 100 µM | TGI (NCI-H226 lung): > 100 µM | TGI (SF-539 CNS): > 100 µM | TGI (SNB-19 CNS): > 100 µM | TGI (SNB-75 CNS): > 100 µM

Clc1ccc(-n2nnc(C3=NCCN3)c2-c2ccccc2)cc1
TGI (A498 renal): > 100 µM | TGI (HOP-92 NSCLC): > 100 µM | TGI (NCI-H226 lung): > 100 µM | TGI (SF-539 CNS): > 100 µM | TGI (SNB-19 CNS): > 100 µM | TGI (SNB-75 CNS): > 100 µM

Cc1ccccc1-c1c(N)nc(NC#N)nc1C(=O)Nc1ccccc1
TGI (A498 renal): > 100 µM | TGI (HOP-92 NSCLC): > 100 µM | TGI (NCI-H226 lung): > 100 µM | TGI (SF-539 CNS): > 100 µM | TGI (SNB-19 CNS): > 100 µM | TGI (SNB-75 CNS): > 100 µM

[Cl][Bi]([O]c1ccccn1)[O]c1ccccn1
GI50 (SF-539 CNS): > 100 µM | TGI (SF-539 CNS): > 100 µM | GI50 (SNB-19 CNS): > 100 µM | TGI (SNB-19 CNS): > 100 µM | GI50 (SNB-75 CNS): > 100 µM | TGI (SNB-75 CNS): > 100 µM

O=C(O)CNc1c2ccccc2nc2ccccc12
TGI (HOP-92 NSCLC): > 100 µM | TGI (NCI-H226 lung): > 100 µM | TGI (SF-539 CNS): > 100 µM | TGI (SNB-19 CNS): > 100 µM | TGI (SNB-75 CNS): > 100 µM

N#CC(C(=O)/C(=N/N)C(C#N)c1ccc(Cl)cc1)c1ccc(Cl)cc1 (stereo unspecified)
TGI (A498 renal): > 100 µM | TGI (HOP-92 NSCLC): > 100 µM | TGI (NCI-H226 lung): > 100 µM | TGI (SF-539 CNS): > 100 µM | TGI (SNB-19 CNS): > 100 µM | TGI (SNB-75 CNS): > 100 µM

CC(=O)OC1C(=O)C(O)C(C)OC1O[C@@H]1C[C@@]2(C)[C@@H]3CC=C4[C@@H](C[C@H](O)C(=O)C4(C)C)[C@]3(C)C(=O)C[C@]2(C)[C@H]1[C@@](C)(O)C(=O)/C=C/C(C)(C)O (stereo partly specified)
TGI (A498 renal): 1.04 µM | TGI (HOP-92 NSCLC): 2.52 µM | TGI (NCI-H226 lung): 2 µM | TGI (SF-539 CNS): 1.97 µM | TGI (SNB-19 CNS): 4.56 µM | TGI (SNB-75 CNS): 1.47 µM

COC(=O)C(CCS(=O)(=O)CC(=O)C(=O)Nc1cccc(C(C)=O)c1)C(=O)OC
TGI (A498 renal): > 100 µM | TGI (HOP-92 NSCLC): > 100 µM | TGI (NCI-H226 lung): > 100 µM | TGI (SF-539 CNS): > 100 µM | TGI (SNB-19 CNS): > 100 µM | TGI (SNB-75 CNS): > 100 µM

CCCCCCCCCCC/C(=N/O)c1ccc(O)c2ncccc12
TGI (HOP-92 NSCLC): 5.47 µM | TGI (NCI-H226 lung): 11.9 µM | TGI (SF-539 CNS): 4.91 µM | TGI (SNB-19 CNS): > 100 µM | TGI (SNB-75 CNS): 13.2 µM

CCCN(CCCCC(NC(C)=O)C(=O)NCc1ccccc1)C(=O)NCCCl (stereo unspecified)
TGI (HOP-92 NSCLC): > 100 µM | TGI (NCI-H226 lung): > 100 µM | TGI (SF-539 CNS): > 100 µM | TGI (SNB-19 CNS): > 100 µM | TGI (SNB-75 CNS): > 100 µM

CC(CN(CP(=O)([O-])[O-])CP(=O)([O-])[O-])N(CP(=O)([O-])[O-])CP(=O)([O-])[O-].N.N.[Pt+2] (stereo unspecified)
GI50 (A498 renal): > 100 µM | TGI (A498 renal): > 100 µM | GI50 (NCI-H226 lung): > 100 µM | TGI (NCI-H226 lung): > 100 µM | GI50 (SF-539 CNS): > 100 µM | TGI (SF-539 CNS): > 100 µM | GI50 (SNB-19 CNS): > 100 µM | TGI (SNB-19 CNS): > 100 µM | GI50 (SNB-75 CNS): > 100 µM | TGI (SNB-75 CNS): > 100 µM

COC(=O)C1=C(C)N(NC(N)=O)C2(N)N(NC(N)=O)C(C)=C(C(=O)OC)C12C(=O)OC (stereo unspecified)
TGI (A498 renal): > 100 µM | TGI (HOP-92 NSCLC): > 100 µM | TGI (NCI-H226 lung): > 100 µM | TGI (SF-539 CNS): > 100 µM | TGI (SNB-19 CNS): > 100 µM

CCCCCCCCCC(=O)CC(=O)c1ccc(O)cc1O
TGI (HOP-92 NSCLC): 79.4 µM | TGI (NCI-H226 lung): 84.9 µM | TGI (SF-539 CNS): 96.5 µM | TGI (SNB-19 CNS): > 100 µM | TGI (SNB-75 CNS): 95.5 µM

COc1ccc2[nH]c(-c3ccccn3)cc(=O)c2c1
TGI (HOP-92 NSCLC): > 100 µM | GI50 (NCI-H226 lung): 36.6 µM | TGI (NCI-H226 lung): > 100 µM | TGI (SF-539 CNS): 91.9 µM | TGI (SNB-19 CNS): > 100 µM | TGI (SNB-75 CNS): 88 µM
